In the supplement of paper PMC10307832:

Compound: NC(=O)[C@@H](CCC(F)(F)F)N(Cc1ccc(-c2ncon2)cc1F)S(=O)(=O)c1ccc(Cl)cc1 [Avagacestat]
Assay: relative viability (nuclei count vs DMSO), 5 days (fraction); higher = more cells survive
Summary of the method: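 Viability here means nuclei in treated wells divided by nuclei in vehicle wells, reported as the median across plates. Only plates with control CV below 25% and at least one doubling passed. Lung cancer cell lines in 1536-well plates were exposed to five √10-spaced library-drug doses for 5 days and counted from 4× Hoechst images in MetaXpress.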

| Cell Line | relative viability (0.08 µM) | relative viability (0.253 µM) | relative viability (0.8 µM) | relative viability (2.53 µM) | relative viability (8 µM) |
| --- | --- | --- | --- | --- | --- |
| 201T | 0.995 | 1 | 1.1 | 0.927 | 0.965 |
| A549 | 1.1 | 1.37 | 1.15 | 1.03 | 0.993 |
| A-427 | 1.12 | 1.12 | 1.17 | 1.07 | 1.08 |
| ABC-1 | 1.1 | 1.25 | 1.26 | 1.14 | 0.877 |
| BEN | 1.13 | 1.02 | 1.06 | 0.959 | 0.917 |
| CAL-12T | 1.09 | 1.12 | 1.11 | 1.11 | 1.04 |
| COR-L23 | 1.16 | 1.24 | 0.989 | 0.921 | 0.901 |
| COR-L 105 | 0.955 | 1.07 | 0.923 | 0.876 | 0.633 |
| Calu-6 | 1.15 | 1.22 | 1.13 | 1.07 | 1.04 |
| ChaGo-K-1 | 1.13 | 0.948 | 0.969 | 0.99 | 0.889 |
| EBC-1 | 1.07 | 1.11 | 1.12 | 0.942 | 0.8 |
| EKVX | 1.17 | 1.07 | 1.19 | 0.886 | 0.871 |
| EMC-BAC-2 | 1.22 | 1.08 | 1.15 | 1.08 | 1.1 |
| EPLC-272H | 0.989 | 0.922 | 1.07 | 1 | 0.911 |
| H3255 | 1.04 | 1.06 | 1.08 | 1.01 | 0.988 |
| HARA | 0.891 | 1.17 | 1.06 | 0.963 | 0.989 |
| HCC-15 | 1.17 | 1.19 | 1.13 | 1 | 0.946 |
| HCC-44 | 0.999 | 0.999 | 0.997 | 0.968 | 0.935 |
| HCC-78 | 1.07 | 1.01 | 1.18 | 0.801 | 0.915 |
| HCC-366 | 1.04 | 1.17 | 1.07 | 1.11 | 1.11 |
| HCC-827 | 1.1 | 1.09 | 1.11 | 1.09 | 1.11 |
| HOP-62 | 1.15 | 1.17 | 1.03 | 0.991 | 0.895 |
| IA-LM | 1.83 | 1.62 | 1.44 | 1.51 | 1.26 |
| LC-2-ad | 1.02 | 0.985 | 1.11 | 1.03 | 0.96 |
| LCLC-97TM1 | 1.08 | 1.09 | 1.2 | 1 | 0.829 |
| LCLC-103H | 0.994 | 0.928 | 0.921 | 0.929 | 0.941 |
| LK-2 | 1.28 | 1.22 | 0.784 | 0.604 | 0.874 |

| Cell Line | relative viability (0.08 µM) | relative viability (0.253 µM) | relative viability (0.8 µM) | relative viability (2.53 µM) | relative viability (8 µM) |
| --- | --- | --- | --- | --- | --- |
| LOU-NH91 | 1.05 | 0.881 | 1.14 | 0.917 | 0.968 |
| LU99A | 0.977 | 0.997 | 1.12 | 0.907 | 0.986 |
| LXF-289 | 0.995 | 1.05 | 1.05 | 0.994 | 0.975 |
| NCI-H23 | 1.01 | 1.08 | 1.17 | 1.03 | 0.944 |
| NCI-H322M | 0.916 | 0.833 | 0.97 | 0.74 | 0.846 |
| NCI-H358 | 1.02 | 1 | 1.03 | 0.835 | 0.835 |
| NCI-H441 | 1.32 | 1.61 | 1.09 | 1.24 | 0.794 |
| NCI-H460 | 1.09 | 1.31 | 1.03 | 0.942 | 0.951 |
| NCI-H520 | 1.04 | 1.08 | 1 | 0.918 | 0.825 |
| NCI-H522 | 0.922 | 1.04 | 0.969 | 1.12 | 0.938 |
| NCI-H596 | 1.06 | 0.986 | 0.985 | 1.04 | 0.936 |
| NCI-H647 | 0.992 | 1.07 | 1.13 | 0.922 | 0.899 |
| NCI-H650 | 1.02 | 0.966 | 1.05 | 1.16 | 0.872 |
| NCI-H661 | 1.02 | 1.2 | 1.04 | 0.85 | 1.02 |
| NCI-H727 | 1.06 | 0.987 | 0.948 | 1.02 | 0.837 |
| NCI-H838 | 1.03 | 1.11 | 1.05 | 0.894 | 0.935 |
| NCI-H1299 | 1.03 | 1.11 | 1.06 | 1.04 | 1 |
| NCI-H1355 | 1.07 | 1.2 | 1.03 | 0.876 | 0.874 |
| NCI-H1395 | 0.909 | 0.903 | 0.97 | 0.875 | 0.861 |
| NCI-H1437 | 1.09 | 0.997 | 1.1 | 0.915 | 0.877 |
| NCI-H1563 | 0.984 | 0.986 | 0.968 | 0.798 | 0.813 |
| NCI-H1648 | 0.583 | 0.705 | 0.513 | 0.55 | 0.457 |
| NCI-H1650 | 1.1 | 1.08 | 0.95 | 1.13 | 0.881 |
| NCI-H1651 | 1.08 | 1.09 | 1.13 | 0.98 | 0.922 |
| NCI-H1666 | 1.28 | 1.18 | 1.26 | 1.17 | 1.17 |
| NCI-H1703 | 1.24 | 1.03 | 0.975 | 0.955 | 0.873 |
| NCI-H1734 | 1.04 | 1.19 | 1 | 1.04 | 0.994 |

| Cell Line | relative viability (0.08 µM) | relative viability (0.253 µM) | relative viability (0.8 µM) | relative viability (2.53 µM) | relative viability (8 µM) |
| --- | --- | --- | --- | --- | --- |
| NCI-H1755 | 1.03 | 1.1 | 1.17 | 0.941 | 0.964 |
| NCI-H1792 | 1.15 | 0.866 | 1.36 | 0.859 | 0.761 |
| NCI-H1793 | 1.04 | 1.11 | 1.06 | 0.858 | 0.846 |
| NCI-H1915 | 1.04 | 1.21 | 1.06 | 1.03 | 0.978 |
| NCI-H1944 | 1.06 | 1.15 | 0.924 | 0.865 | 0.922 |
| NCI-H1975 | 1.02 | 1.21 | 1.15 | 0.943 | 0.967 |
| NCI-H1993 | 1.16 | 1.09 | 1.34 | 0.93 | 1.01 |
| NCI-H2009 | 1.04 | 1.09 | 1.04 | 1.04 | 0.912 |
| NCI-H2023 | 1.18 | 1.22 | 1.1 | 0.912 | 0.804 |
| NCI-H2085 | 1.05 | 1.02 | 1.04 | 1.1 | 0.985 |
| NCI-H2087 | 1.29 | 1.06 | 1.12 | 1.08 | 1.06 |
| NCI-H2126 | 0.994 | 1.04 | 1.06 | 0.921 | 0.936 |
| NCI-H2170 | 1.08 | 1.18 | 0.994 | 0.938 | 0.932 |
| NCI-H2228 | 1.07 | 1.22 | 1.29 | 0.9 | 1.01 |
| NCI-H2342 | 0.955 | 0.906 | 0.935 | 0.888 | 0.949 |
| NCI-H2347 | 1.1 | 1.07 | 1.13 | 1.03 | 0.97 |
| NCI-H2405 | 1.01 | 0.99 | 1.08 | 0.956 | 0.97 |
| NCI-H3122 | 1.07 | 1.08 | 1.05 | 0.995 | 0.927 |
| PC-3 [JPC-3] | 1.2 | 1.08 | 1.25 | 1.05 | 1.02 |
| PC-14 | 1.32 | 1.18 | 1.35 | 1.02 | 0.922 |
| RERF-LC-KJ | 1.07 | 1.1 | 1.04 | 0.945 | 0.856 |
| SK-LU-1 | 1.21 | 1.03 | 1.02 | 0.83 | 0.908 |
| SK-MES-1 | 1.14 | 1.08 | 1.06 | 0.92 | 0.889 |
| SW 900 | 1.07 | 1.04 | 1.06 | 0.967 | 0.979 |
| SW 1573 | 1.14 | 1.14 | 1.06 | 0.972 | 0.895 |
| UMC-11 | 1.04 | 1.07 | 1.1 | 1.02 | 1.06 |
